The values below come from patent US7763287B2, “Extract of Cercis chinensis having anti-oxidant activity and anti-aging activity, and cosmetical composition containing the extract for anti-oxidation, skin-aging protection and wrinkle improvement” (Hankook Pharm. Co., Inc., priority 2002, dated 2010).

Experiment [1] concerns HEK-N/F cells. The experiment in a line: Telomere length / maximum PDL (Southern blot of TRFs). Format: cell-based, human. As to the method: In the above Example 8, an extract of […] chinensis and active ingredients separated from the same were confirmed to have an effect of prolongation of life span of a cell. Thus, in this example, relation between the effect of prolongation of life span and the length of a telomere was investigated. Particularly, genomic DNA was extracted from each cell of different ages by using a nucleic acid extraction kit (Isoquick Nucleic Acid Extraction kit, ORCA Research Inc.), which was stored at 4° C. after being dissolved in Tris-EDTA solution (10 mM Tris-HCl, 1 mM EDTA, pH 8.0). 2 μl of 10×H buffer solution (TaKaRa), 2 μl of the extracted genomic DNA solution and distilled water were all mixed in a 1.5 ml tube, making final volume 19 μl. Then, 1 μl at of restriction enzyme […]) was added thereto. […] Then, the gel was immersed in 0.25 N HCl, followed by shaking for 15 minutes. The gel was washed twice with distilled water. This gel was dipped into denaturing solution (0.2 N NaOH, 0.6 M NaCl), followed by shaking for 25 minutes at room temperature. And then, the gel was washed three times with distilled water. On a blotting device filled with 6×SSC, nitrocellulose membrane (Optitran BA-S 85, Schleicher & Schuel), 3 mm filter paper, paper towel, glass plate and weight (2 kg) were loaded in that order, followed by blotting overnight. After the blotting was finished, membrane filter was soaked in 3×SSC, and then water was discarded smoothly. The positions of the wells on the membrane were marked. The membrane was placed between filter papers, followed by baking at 80° C. for overnight. […] After being dried, the membrane was covered with wrap and set in a cassette on which X-ray film (Scientific Imaging Film, Kodak) and intensifying screen were attached. Autoradiography was performed at -80° C. for overnight. Based on the developed film and the location of the membrane, the positions of the wells were marked by a magic pen. The density peak of TRFs was detected by a laser densitometer (UltroScan XL, Pharmacia) and its mobility was calculated.

The test system of experiment [2] is HEK-N/F cells. The experiment in a line: Protection of cells from oxidative damage induced by t-butylhydroperoxide. Format: cell-based, human. As to conditions: 1.5 mM t-butylhydroperoxide 3 hours. As for the experimental part: t-butylhydroperoxide is metabolized into a free radical intermediate as it comes in a cell, so that it causes lipid peroxidation, resulting in cell damage. This phenomenon is similar to that caused by oxidataive stress accumulated in cells and tissues. […] HEK-N/F, an epidermal cell line of a newborn baby, was treated with 1.5 mM of t-butylhydroxyperoxide for 3 hours.

For the molecule `O=c1c(O)c(-c2cc(O)c(O)c(O)c2)oc2cc(O)cc(O)c12` [Chemical Formula 9, myricetin], the “telomere shortening speed delayed, comparing to control” value in the experiment with HEK-N/F cells [1] came to 1.6 times. In addition, the “maximum PDL” value with HEK-N/F cells [1] (control 14.1) was determined as 23.1. Further, the “Cell survival rate (%)” value with HEK-N/F cells [2] amounted to 61.0±4.5%. The “TBARS (pmol/mg protein)” value in the experiment with HEK-N/F cells [2] (compound 50.0 µg/ml) was 810.7 ± 77.0 pmol/mg protein.
